One data set concerns the target T1, Gadd45β-inhibited MKK7 (Homo sapiens, UniProt O14733).
T1 construct: expressed in transfected cells; host or cells: HEK-293 (FLAG-MKK7); bacteria (GST-hGadd45β)
T1 sequence (O14733 1-419): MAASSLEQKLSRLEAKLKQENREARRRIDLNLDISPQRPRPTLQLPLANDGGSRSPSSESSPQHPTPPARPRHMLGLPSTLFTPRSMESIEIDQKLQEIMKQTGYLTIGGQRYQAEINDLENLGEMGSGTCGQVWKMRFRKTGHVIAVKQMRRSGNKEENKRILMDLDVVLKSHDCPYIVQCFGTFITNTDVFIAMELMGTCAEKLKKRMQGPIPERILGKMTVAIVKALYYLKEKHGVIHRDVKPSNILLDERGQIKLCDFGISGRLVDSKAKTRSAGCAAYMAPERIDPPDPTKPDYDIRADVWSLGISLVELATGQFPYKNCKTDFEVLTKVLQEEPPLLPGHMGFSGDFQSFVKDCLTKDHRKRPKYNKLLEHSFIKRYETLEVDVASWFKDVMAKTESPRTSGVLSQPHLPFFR
As to the kind of experiment: MKK7 kinase assay in the presence of recombinant hGadd45β. Type of data set: biochemical. The note with it: 1 nM or 5 nM peptide, 5 μM GST-hGadd45β. Here is the method:
In FIG. 6, transient transfection of pcDNA-FLAG-MKK7 in HEK-293 cells was performed using the method of Ca3(PO4)2 precipitation, essentially as described in Papa, S et al., (2004) Nat. Cell Biol. 6, 146-153 and references therein. 36 hrs after transfection, the cells were treated with 100 ng/ml phorbol 12-myristate 13-acetate (PMA) and 1 μM ionomycin for 30 min at 37° C. Cell extracts were prepared as described in example 4 and used for immunoprecipitation with anti-FLAG antibodies (binding to FLAG-MKK7) as described in Papa, S et al., (2004) Nat. Cell Biol. 6, 146-153 and references therein. Briefly, 50 μg of cell lysate from PMA-ionomycin (P/D-treated or untreated, HEK-293 cells transiently expressing FLAG-MKK7 was incubated with 10 μl of anti-FLAG M2 Affinity Gel (SIGMA) for 4 hrs at 4° C. during rotation. The immunoprecipitates were then washed 3 times in lysis buffer and twice more in kinase buffer (10 mM HEPES, 5 mM MgCl2, 1 mM MnCl2,12.5 mM β-glycerophosphate, 2 mM DTT, 4 mM NaF and 0.1 mM Na3VO4). MKK7 catalytic activity was finally measured in kinase assays by incubating FLAG-MKK7 immunoprecipitates at 30° C. for 20 min with 20 μl of kinase buffer containing 2 μM of recombinant GST-JNK1 and 5 μCi of [γ-^32P]ATP) (kinase reaction), as described in Papa, S et a., (2004) Nat. Cell Biol. 6, 146-153 and references therein.
In some reactions, to test the ability of D-tetrapeptide antagonists to disrupt the Gadd45β-MKK7 interaction and so release the catalytic activity of MKK7 from Gadd45β-afforded inhibition, FLAG-MKK7 immunoprecipitates were 1) first pre-incubated for 10 min at 30° C. with either 1 nM or 5 nM of DTP1, DTP2 or negative control (NC) D-tetrapeptides, NC1, NC2, NC3 and NC4, and 2) then incubated for another 10 min at 30° C. with or without 5 μM of a GST-fusion protein of recombinant human (h)Gadd45β (GST-hGadd45β; purified from bacterial lysates as described in Papa, S., (2007) J. Biol. Chem. 282, 19029-19041), before using them for the kinase reaction described above, as indicated in FIG. 6.
In all cases, kinase reactions were terminated by the addition of Laemmli sample buffer. […] For a further discussion of MKK7 kinase assay conditions, the reader is directed to Papa, S et al., (2007) J. Biol. Chem. 282, 19029-19041 and Papa, S et al., (2004) Nat. Cell Biol. 6, 146-153 and the references therein.

Data set [1] deals with T2, Gadd45β/MKK7 interaction (Homo sapiens, UniProt O14733).
T2 construct: The GST-fused full-length kinase was coated for 16 h at 4° C., at a concentration of 42 nM; made in house
T2 sequence (O14733 1-419): T1 sequence (O14733 1-419)
In words: ELISA competition assay after 48-hr pre-incubation with human serum at 37° C. Type of data set: binding. The note with it: for stability after pre-incubation with human serum: result in words. Here is the method: In FIG. 4, Gadd45β/MKK7 binding, competition ELISA assays were carried out to determine the stability of Z-conjugated D-tetrapeptides in human serum. […] ELISA were performed as described in FIG. 3 C. Briefly, 100 μl of 42 nM of recombinant GST-MKK7 in ELISA buffer (25 mM Tris pH 7.5, 150 mM NaCl, 1 mM DTT, 1 mM EDTA) were coated onto wells of 96-well plates by overnight incubation at 4° C. After blocking with 2% of NFDM for 1 hr at 37° C., plates were washed with TPBS, and then 21 nM of recombinant, biotinylated human (h)Gadd45β were added to the wells together with increasing concentrations of tetrapeptides which had either been subjected or had not been subjected to pre-incubation with human serum, as indicated. For a further discussion of the conditions used for the competition ELISA assay, the reader is directed to Tornatore et al 2008 JMB, 378: 97-111 and the references therein.
For orientation: ELISA stands for enzyme-linked immunosorbent assay.

Data set [2] concerns U266, KMS-11, NCI-H929, BJAB and U937 tumour cell lines. In words: [3H]thymidine incorporation assay in tumour cell lines at 10 μM. Type of data set: cell-based, human. The note with it: up to 144 hrs, result in words. On the procedure:
All experiments were performed in triplicate.
In general terms: Dividing cells build labelled thymidine or BrdU into new DNA.

For data set [3], the target named is T2, Gadd45β/MKK7 interaction. As to the kind of experiment: ELISA competition assay of biotin-hGadd45β binding to coated GST-MKK7. The following applies: Table III, modified peptides. Summed up:
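GST-MKK7 (42 nM) coated in Tris pH 7.5 buffer, 16 h, 4 °C; biotin-hGadd45β (21 nM) added with competitor peptides (0.01–100 nM), 1 h, 37 °C. Streptavidin-HRP/o-phenylenediamine read at 490 nm; binding expressed as % of signal without competitor.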

Square brackets hold non-standard residues; d marks the D form. Peptide text beside a SMILES is read from it. * marks the point of attachment. Cbz = O=C(OCc1ccccc1)* Bounds are passed on as bounds.

From patent US8993717B2, “Gadd45beta targeting agents” (Imperial Innovations Limited, priority 2009, dated 2015) come the findings set out here.

For the compound `CC(=O)N[C@@H](Cc1ccc(O)cc1)C(=O)N[C@@H](CC(=O)O)C(=O)N[C@@H](Cc1c[nH]cn1)C(=O)N[C@@H](C)C(N)=O` [NC2, Acetyl-(L-Tyr)-(L-Asp)-(L-His)-(L-Ala)-NH2] (Ac-YDHA-NH2), the “restoration of MKK7 catalytic activity” value at Gadd45β-inhibited MKK7 was “did not”.
On the same count and under the same terms, under `CC(=O)N[C@@H](Cc1ccc(O)cc1)C(=O)N[C@@H](CCC(=O)O)C(=O)N[C@@H](CCCCN)C(=O)N[C@@H](Cc1c[nH]c2ccccc12)C(N)=O` [NC3, Acetyl-(L-Tyr)-(L-Glu)-(L-Lys)-(L-Trp)-NH2] (Ac-YEKW-NH2) stands “did not”.
As to `NC(=O)[C@H](Cc1ccccc1)NC(=O)[C@H](Cc1c[nH]cn1)NC(=O)[C@H](CC(=O)O)NC(=O)[C@H](Cc1ccc(O)cc1)NC(=O)OCc1ccccc1` [Z-YDHF-NH2] (Cbz-YDHF-NH2), on Gadd45β/MKK7 interaction [1], the IC50 – broadly, the midpoint of a concentration-inhibition curve – was more than 10 µM and the “stability after pre-incubation with human serum” value is listed as “significant loss of activity”. Also, the “tumoricidal/cytotoxic activity in tumour cell lines” value in data set [2] is listed as “not”.
Consider `N=C(N)NCCC[C@H](NC(=O)[C@H](CCC(=O)O)NC(=O)[C@H](Cc1ccc(O)cc1)NC(=O)OCc1ccccc1)C(=O)N[C@@H](Cc1ccccc1)C(N)=O` [Z-YERF-NH2] (Cbz-YERF-NH2), for which the “% Inhibition of Gadd45β-MKK7 binding” value at Gadd45β/MKK7 interaction [3] is reported as 78%. At Gadd45β/MKK7 interaction [1], the IC50 was more than 10 µM and the “stability after pre-incubation with human serum” value is listed as “significant loss of activity”. Further, the “tumoricidal/cytotoxic activity in tumour cell lines” value in data set [2] is listed as “low activity”.
Consider `CC(=O)N[C@H](Cc1ccc(O)cc1)C(=O)N[C@H](CC(=O)O)C(=O)N[C@H](Cc1c[nH]cn1)C(=O)N[C@H](CCC(N)=O)C(N)=O` [NC1, Acetyl-(D-Tyr)-(D-Asp)-(D-His)-(D-Gln)-NH2] (Ac-[dY][dD][dH][dQ]-NH2), for which the “restoration of MKK7 catalytic activity” value at Gadd45β-inhibited MKK7 is reported as “did not”.
The same measure, in the same setting: under `CC(=O)N[C@@H](Cc1ccc(O)cc1)C(=O)N[C@@H](CC(=O)O)C(=O)N[C@@H](CCCCN)C(=O)N[C@@H](Cc1c[nH]c2ccccc12)C(N)=O` [NC4, Acetyl-(L-Tyr)-(L-Asp)-(L-Lys)-(L-Trp)-NH2] (Ac-YDKW-NH2) stands “did not”.
